How the values were obtained:
[1] = system: MDA-MB-231 cells; assay: Tumor exosome secretion, Mortalin scanning peptides (Figure 5B), MDA-MB-231; type: cell-based, human; settings: 48 h; for MDA-MB-231 N-Rh-PE (exosome secretion): 50 ng / 200 μL peptide, transfected, N-Rh-PE fluorescence in media, SMRmut = 100, mean of three independent experiments
Method: (§1) Figure 5 Effects of Mortalin-derived peptides on inhibition of exNef and tumor exosome secretion. (A) Jurkat T cells were co-transfected with 250 ng of wild-type Nef-GFP plasmid and 50 ng of Mortalin-derived scanning peptides (#56–#67), including SMRwt and SMRmut as positive and negative controls. After 48 h, GFP fluorescence in culture media was measured to assess exNef secretion. Data represent mean ± SD from three independent experiments. Statistical significance was determined using a two-sample t-test assuming equal variances. (B) MDA-MB-231 cells were transfected with 50 ng of Mortalin-derived scanning peptides (#56–#67), including SMRwt and SMRmut controls. Cells were labeled with N-Rh-PE and incubated for 48 h. N-Rh-PE fluorescence in culture media was measured to assess exosome secretion. Data represent mean ± SD from three independent experiments. Statistical significance was determined using a two-sample t-test assuming equal variances. TEXT PRINTED IN THE PICTURE: (A) #56: Jurkat GFP (%): 117.84 (50 ng / 200 μL) | (A) #57: Jurkat GFP (%): 96.69 (50 ng / 200 μL) | (A) #58: Jurkat GFP (%): 91.89 (50 ng / 200 μL) | (A) #59: Jurkat GFP (%): 95.49 (50 ng / 200 μL) | (A) #60: Jurkat GFP (%): 98.25 (50 ng / 200 μL) | (A) #61: Jurkat GFP (%): 0.65 (50 ng / 200 μL) | (A) #62: Jurkat GFP (%): 0.51 (50 ng / 200 μL) | (A) #63: Jurkat GFP (%): 98.02 (50 ng / 200 μL) | (A) #64: Jurkat GFP (%): 95.37 (50 ng / 200 μL) | (A) #65: Jurkat GFP (%): 96.34 (50 ng / 200 μL) | (A) #66: Jurkat GFP (%): 92.28 (50 ng / 200 μL) | (A) #67: Jurkat GFP (%): 99.56 (50 ng / 200 μL) | (A) SMRwt: Jurkat GFP (%): 0.51 (50 ng / 200 μL) | (A) SMRmut: Jurkat GFP (%): 100 (50 ng / 200 μL) | (B) #56: MDA-MB-231 N-Rh-PE (%): 66.31 (50 ng / 200 μL) | (B) #57: MDA-MB-231 N-Rh-PE (%): 79.73 (50 ng / 200 μL) | (B) #58: MDA-MB-231 N-Rh-PE (%): 68.11 (50 ng / 200 μL) | (B) #59: MDA-MB-231 N-Rh-PE (%): 67.81 (50 ng / 200 μL) | (B) #60: MDA-MB-231 N-Rh-PE (%): 72.32 (50 ng / 200 μL) | (B) #61: MDA-MB-231 N-Rh-PE (%): 7.53 (50 ng / 200 μL) | (B) #62: MDA-MB-231 N-Rh-PE (%): 5.36 (50 ng / 200 μL) | (B) #63: MDA-MB-231 N-Rh-PE (%): 75.39 (50 ng / 200 μL) | (B) #64: MDA-MB-231 N-Rh-PE (%): 73.49 (50 ng / 200 μL) | (B) #65: MDA-MB-231 N-Rh-PE (%): 81.65 (50 ng / 200 μL) | (B) #66: MDA-MB-231 N-Rh-PE (%): 81.79 (50 ng / 200 μL) | (B) #67: MDA-MB-231 N-Rh-PE (%): 89.82 (50 ng / 200 μL) | (B) SMRwt: MDA-MB-231 N-Rh-PE (%): 6.11 (50 ng / 200 μL) | (B) SMRmut: MDA-MB-231 N-Rh-PE (%): 100 (50 ng / 200 μL)
To assess the effect of Mortalin-derived peptides on tumor exosome secretion, MDA-MB-231 breast cancer cells were transfected with the same panel of scanning peptides and labeled with N-Rh-PE to track exosome release. Following incubation, N-Rh-PE fluorescence in the culture media was measured as a proxy for extracellular exosome levels. SMRwt and SMRmut peptides were again used as controls. […] Statistical analysis confirmed significant differences: SMRmut vs. #61 (p < 7.20 × 10^−7), SMRmut vs. #62 (p < 5.70 × 10^−7), and SMRmut vs. SMRwt (p < 5.96 × 10^−7).

[2] = system: Jurkat T cells; assay: exNef secretion, Mortalin scanning peptides (Figure 5A), Jurkat T cells; type: cell-based; settings: for Jurkat GFP (exNef secretion): 50 ng / 200 μL peptide, 250 ng Nef-GFP plasmid, GFP fluorescence in media, SMRmut = 100, mean of three independent experiments
Method: To determine whether Mortalin-derived peptides can inhibit the secretion of extracellular Nef (exNef), Jurkat T cells were co-transfected with wild-type Nef-GFP and various scanning peptides derived from the substrate-binding domain of Mortalin (#56–#67). SMRwt and SMRmut peptides were included as positive and negative controls, respectively. After 48 h of incubation, GFP fluorescence in the culture media was measured as a proxy for exNef secretion.
as §1
To identify peptide sequences within Mortalin that modulate extracellular vesicle (EV) secretion, a panel of scanning peptides was synthesized and tested in Jurkat T cells. The peptides, listed in Table 1, were custom-synthesized with an average purity of 75% and used in transfection assays to evaluate their impact on EV release. Jurkat T cells (3 × 10^5) were co-transfected with 50 ng of individual Mortalin peptides […] 250 ng of wild-type Nef-GFP plasmid using Chariot™ transfection reagent. Transfection efficiency was confirmed by fluorescence microscopy after 48 h. EV secretion was assessed by measuring GFP fluorescence in the culture media, and statistical analysis was performed using unpaired two-factor t-tests (p < 0.05). Panel of Mortalin scanning peptides developed and tested for their effect EV secretion and Table S2. Mortalin Scanning Peptides Used in Transfection Assays, see the Supplementary Information. […]

[3] = system: MDA-MB-231 cells; assay: Tumor exosome secretion, Mortalin scanning peptides (Figure 5B), MDA-MB-231; type: cell-based, human; settings: MDA-MB-231 exosome experiment

Substance	MDA-MB-231 N-Rh-PE (exosome secretion) [1]	p, SMRmut vs. peptide, exosome secretion ([1]; two-sample t-test assuming equal variances, 50 ng peptide)	Jurkat GFP (exNef secretion) ([2]; 48 h)	cluster formation / potential peptide aggregation ([2]; Jurkat exNef experiment)	p, SMRmut vs. peptide, exNef secretion ([2]; two-sample t-test assuming equal variances, 50 ng peptide, 48 h)	cluster formation [3]
DQLPADECNKLKEEISKMRE [#61, Mortalin scanning peptide 61]	7.53%	< 7.20 × 10^−7	0.65%	formed small clusters	< 1.47 × 10^−13	formed small clusters
^66Ala-Gly-Phe-Pro-Val^70 [SMRmut, 5-mer negative control, Val66 changed to Ala]	100%	–	100%	–	–	–
